The source of these data is article PMC6078987, “Molecular insights into antibiotic resistance - how a binding protein traps albicidin” (Nature Communications, 2018).

Converted amounts (≈) assume the structure as drawn.

Experiment [1] relates to AlbAS in competition with gyrase construct GyrBA59. In words: NMR-based in vitro competition experiment of AlbAS and GyrBA59. It counts as binding, E. coli. The settings on record: 30 µM each of GyrBA59, AlbAS and albicidin; MgCl2, ATP, pBR322. Here is the method:
For the competition experiment with the DNA gyrase construct GyrBA59, 1.7 mM ATP was incubated with 3.4 mM MgCl2 for 10 min. Subsequently, 30 µM GyrBA59 and 3 µg supercoiled pBR322 plasmid DNA (Inspiralis) were added and incubated for another 10 min. Finally, 30 µM ^15N-labeled AlbAS were added to the mixture followed by 30 µM albicidin (10% D2O and 5% DMSO final concentration). Owing to the low protein concentrations (to achieve a 1:1 ratio of gyrase and AlbAS), a ^1H-^15N band-selective optimized flip-angle short-transient heteronuclear multiple quantum coherence (SOFAST HMQC)[44] experiment was performed. The ^1H-^15N SOFAST HMQC was recorded with 2048 scans and with acquisition times of 45 and 38 ms for the ^1H and ^15N dimensions, respectively. Measurements were performed at 303.2 K. The control experiment was performed under the same conditions but without the addition of MgCl2, ATP, pBR322 plasmid DNA, and GyrBA59.

The test system of experiment [2] is Pseudomonas aeruginosa DSM 117. More on the design: method as in PMID 17074789, PMID 25504839. The settings on record: cited from earlier work.
Experiment [3] has as its target T1, AlbAS (Klebsiella oxytoca, UniProt Q8KRS7).
T1 sequence (Q8KRS7 1-221): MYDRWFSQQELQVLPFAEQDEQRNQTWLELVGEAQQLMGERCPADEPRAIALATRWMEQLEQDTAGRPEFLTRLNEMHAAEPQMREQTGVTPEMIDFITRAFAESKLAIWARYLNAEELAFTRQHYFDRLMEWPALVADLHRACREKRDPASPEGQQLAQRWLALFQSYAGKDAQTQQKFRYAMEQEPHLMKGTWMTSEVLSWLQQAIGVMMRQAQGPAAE
In words: 1H-15N HSQC NMR binding assay. The note with it: 15N-labeled AlbAS, 1.5-fold excess of ligand. Here is the method:
For binding studies with albicidin and its derivatives, each ligand was dissolved in 100% d6-DMSO and added to ^15N-labeled AlbAS or ^2H, ^15N-labeled AlbAL in 50 mM sodium hydrogen phosphate (pH 6.8), 150 mM NaCl buffer (usually 0.24 mM AlbAS or AlbAL in 85% buffer, 5% d6-DMSO, and 10% D2O) yielding a 1.5-fold excess of the ligand. After incubation for 20 min at room temperature in the dark, the sample was centrifuged at 20 000 × g for 3 min and the supernatant was transferred to a 5 mm NMR tube. The AlbAS blank sample (Supplementary Figure 14) was measured in 100% buffer without addition of ligands and DMSO. Spectra were recorded on a Bruker Avance III 700 MHz NMR spectrometer (Bruker BioSpin, Rheinstetten, Germany) with a TXI probe head. Standard Bruker pulse sequences were used. 2D ^1H-^15N HSQC spectra were recorded at 298 K with acquisition times of 90 and 22 ms for the ^1H and ^15N dimension, respectively. The experiments were accumulated with ≥16 scans depending on protein sample concentration. 2D ^1H-^15N TROSY spectra were accumulated with 256 scans and acquisition times of 90 and 22 ms for the ^1H and ^15N dimension, respectively. Several AlbAS–albicidin samples were measured with the same result and a representative spectrum is given for the figures in the main manuscript and the SI. NMR experiments with AlbAS and albicidin analogs were conducted once with accumulation of ≥16 scans depending on protein concentration. For alignment of HSQC and TROSY spectra, the TROSY spectrum was corrected by 1/2 ^1JNH in both dimensions. […]

In experiment [4] the test system is Escherichia coli. More on the design: method as in PMID 17074789, PMID 25504839. The note with it: cited from earlier work.
For experiment [5], the system named is Staphylococcus aureus. Further details: method as in PMID 17074789, PMID 25504839. The settings on record: cited from earlier work.
Experiment [6] deals with AlbASCTD (Klebsiella oxytoca, UniProt Q8KRS7). In words: Fluorescence quenching binding assay with AlbASCTD. The note with it: AlbASCTD 100 nM, n constrained to 1. Here is the method: Fluorescence quenching measurements were performed by monitoring tryptophan fluorescence of AlbAS (20 nM), AlbAL (20 nM), AlbASNTD, and AlbASCTD (100 nM) on a FluoroMax 2 spectrometer from Horiba (Potsdam, Germany). The excitation wavelength was set to λexc = 280 nm. Emission spectra were recorded from λem = 290–450 nm with a scanning speed of 1 nm s^−1 and an integration time of 1 s. The excitation and emission slit widths were set to 8 and 4 nm, respectively. Proteins were solved in 50 mM sodium phosphate buffer with 150 mM NaCl and 0.01% DMSO at pH 6.8. All measurements were performed twice and the standard deviation is given for the Kd and the Hill factor n. Data evaluation was performed by integration of the emission band (318–410 nm for AlbAS, 316–412 nm for AlbAL, and 319–390 nm for AlbASNTD and AlbASCTD) for every titration step. The area under the curve (AUC) of the buffer blank (buffer with 0.01% DMSO) was subtracted from the measured titration data. The quenching factor was determined by subtraction of AUCs for each titration step from the AUC of the protein in the absence of ligand. For determination of the AlbAS– and AlbAL–albicidin Kd values, the data were fitted to Eq. (2).2 Y=Bmax[L]^n/Kdn+[L]^n where [L], n, and Bmax denote the total ligand concentration, the Hill coefficient, and the maximum binding capacity of the protein, respectively.

For `COc1c(NC(=O)c2ccc(NC(=O)c3ccc(NC(=O)[C@H](CC#N)NC(=O)c4ccc(NC(=O)/C(C)=C/c5ccc(O)cc5)cc4)cc3)c(OC)c2O)ccc(C(=O)O)c1O` [albicidin], in experiment [1], the “competition between AlbAS and GyrBA59 for the ligand (in words)” value is on record as “AlbAS fully populated the albicidin-bound state”. Moreover, the figures for the MIC in experiment [2], in experiment [4] and in experiment [5] were 1.0 µg/mL (≈ 1.19 µM), 0.063 µg/mL (≈ 0.0747 µM) and 4.0 µg/mL (≈ 4.75 µM), respectively. Also, the “binding to AlbAS by HSQC signal pattern (in words)” value in experiment [3] was “strong ligand binding in the nM–pM range”. In addition, the Kd (commonly the concentration at which binding is half-saturated) in experiment [6] was 600 ± 100 nM.
